Some test systems named below: A498 renal; SK-MEL-28 melanoma; IGROV1 ovarian; UACC-257 melanoma; MOLT-4 leukemia; CCRF-CEM leukemia; SF-539 CNS; NCI-H23 lung; OVCAR-3 ovarian; SNB-19 CNS.
Common to all, as to assay: NCI tumour cell line growth inhibition, 48 h

Molecules are shown by their SMILES. Where “and” joins values, the source holds several entries; their conditions need not be identical. Equal entries are not always repeated.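 Values below derive from 48-hour exposures of cells grown in 96-well plates, with endpoints linearly interpolated between the two concentrations bracketing the appropriate inhibition level. At the GI50, growth is halved. The concentration for full growth arrest is given as TGI.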

For `COc1ccc(C2S/C(=C\c3ccccc3O)C(=O)N2NC(=O)Cc2ccccc2)cc1` (configuration not stated), the TGI with A498 renal is greater than 100000 nM; with SK-MEL-28 melanoma it was greater than 100 µM; in the assay on IGROV1 ovarian, greater than 100 µM; with UACC-257 melanoma it was greater than 100 µM; in the assay on MOLT-4 leukemia, greater than 100 µM; with CCRF-CEM leukemia, greater than 100 µM. The TGI in the assay on SF-539 CNS was greater than 100 µM; with NCI-H23 lung it was greater than 100000 nM.
Regarding `COC(=O)C1=C(c2ccc3c(c2)OCO3)O[C@H](c2cc(OC)c(OC)c(OC)c2)[C@H]1COC(C)=O`, the TGI in the assay on OVCAR-3 ovarian is 8.22 µM; in the assay with A498 renal, 2940 nM; in the assay with SK-MEL-28 melanoma it was greater than 100 µM; with IGROV1 ovarian, 81 µM; in the assay on UACC-257 melanoma, 56 µM; in the assay with MOLT-4 leukemia, 27.8 µM. Moreover, the TGI in the assay on CCRF-CEM leukemia was greater than 100 µM; with SF-539 CNS it was 6.91 µM; with NCI-H23 lung, 17700 nM.
For the compound `O=C1CCCC/C(=C/c2ccccc2)N1`, the TGI in the assay with OVCAR-3 ovarian was greater than 100 µM; in the assay on A498 renal, greater than 100000 nM; with SK-MEL-28 melanoma, greater than 100 µM; in the assay with IGROV1 ovarian, greater than 100 µM; with UACC-257 melanoma, greater than 100 µM; in the assay on MOLT-4 leukemia, greater than 100 µM. For the same compound, the values for the TGI in the assay on CCRF-CEM leukemia, in the assay with SF-539 CNS and with NCI-H23 lung were greater than 100 µM, greater than 100 µM and greater than 100000 nM, respectively.
Consider `CCC[CH2][Sn]([CH2]CCC)([CH2]CCC)[O]C(=O)CC`, for which the GI50 in the assay with OVCAR-3 ovarian was 133 nM; in the assay with A498 renal, 120 nM; in the assay on SK-MEL-28 melanoma, 161 nM; with IGROV1 ovarian it was 167 nM; with UACC-257 melanoma it was 145 nM; with MOLT-4 leukemia, 247 nM. In addition, the GI50 with SNB-19 CNS is 169 nM; in the assay on SF-539 CNS, 185 nM; in the assay on NCI-H23 lung, 149 nM. For the same compound, the TGI in the assay on OVCAR-3 ovarian was 0.261 µM; with A498 renal, 256 nM; with SK-MEL-28 melanoma, 0.318 µM; in the assay with IGROV1 ovarian, 0.397 µM; with UACC-257 melanoma it was 0.296 µM; in the assay on MOLT-4 leukemia it was 1 µM. Further, the TGI with SNB-19 CNS turned out to be 0.335 µM; in the assay with SF-539 CNS, 0.38 µM; in the assay on NCI-H23 lung, 615 nM.
As for `CCCCN(CCCC)CC(C(=O)Nc1ccc([N+](=O)[O-])cc1[N+](=O)[O-])/C(C)=N\NC(=S)NN` (configuration not stated), the TGI with OVCAR-3 ovarian is greater than 100 µM; in the assay with A498 renal it was greater than 100000 nM; in the assay with SK-MEL-28 melanoma, greater than 100 µM; in the assay with IGROV1 ovarian, greater than 100 µM; in the assay with UACC-257 melanoma, greater than 100 µM; with MOLT-4 leukemia, greater than 100 µM. The TGI is greater than 100 µM with CCRF-CEM leukemia, greater than 100 µM with SF-539 CNS and greater than 100000 nM in the assay with NCI-H23 lung.
In the case of `O=C(CCCn1ccnc1[N+](=O)[O-])NCCn1cncc1[N+](=O)[O-]`, the TGI was greater than 100 µM with OVCAR-3 ovarian; greater than 100000 nM with A498 renal; greater than 100 µM in the assay on SK-MEL-28 melanoma; greater than 100 µM in the assay on IGROV1 ovarian; greater than 100 µM in the assay with UACC-257 melanoma; greater than 100 µM with MOLT-4 leukemia. Besides, the TGI is greater than 100 µM in the assay with CCRF-CEM leukemia, greater than 100 µM in the assay with SF-539 CNS and greater than 100000 nM in the assay with NCI-H23 lung.
As for `CC1OC2CC(=O)OC2C2=C1C(=O)c1c(O)cccc1C2=O` (configuration not stated), the GI50 with OVCAR-3 ovarian was 29.7 nM; in the assay with A498 renal it was 348 nM; with SK-MEL-28 melanoma it was 54.8 nM; in the assay with IGROV1 ovarian, 50.8 nM; in the assay with UACC-257 melanoma, 74.8 nM; with CCRF-CEM leukemia it was 26.9 nM. Further, the GI50 in the assay with SNB-19 CNS is 1080 nM; in the assay on SF-539 CNS, 120 nM; in the assay with NCI-H23 lung, 142 nM. Also, the TGI in the assay on OVCAR-3 ovarian was found to be 0.0851 µM; in the assay on A498 renal, 1380 nM; in the assay on SK-MEL-28 melanoma, 0.191 µM; with IGROV1 ovarian, 0.112 µM; in the assay on UACC-257 melanoma it was 0.217 µM; in the assay on CCRF-CEM leukemia, 0.501 µM. For the same compound, the results for the TGI in the assay with SNB-19 CNS, in the assay on SF-539 CNS and in the assay on NCI-H23 lung were 2.48 µM, 0.284 µM and 426 nM, respectively.
With `COC(=O)c1cc2c(cc1O)[C@@H](NC(C)=O)CCc1cc(OC)c(OC)c(OC)c1-2`, the GI50 with A498 renal is 42.2 nM; in the assay with SK-MEL-28 melanoma, greater than 100000 nM; with UACC-257 melanoma it was 27.4 nM; in the assay with MOLT-4 leukemia, 47.2 nM; in the assay with CCRF-CEM leukemia, 39.8 nM; in the assay with SNB-19 CNS it was 35.5 nM. The GI50 in the assay on NCI-H23 lung was 21.7 nM. In addition, the TGI was greater than 100 µM in the assay with SK-MEL-28 melanoma; greater than 100 µM in the assay with UACC-257 melanoma; 81.8 µM in the assay with MOLT-4 leukemia; greater than 100 µM in the assay on CCRF-CEM leukemia; greater than 100 µM with SNB-19 CNS; 76.6 µM in the assay on SF-539 CNS. Moreover, the TGI in the assay with NCI-H23 lung was 84.8 nM and 71.2 nM.
As to `CC(=O)O.CC(=O)O.CC(=O)O.CC(=O)O.CC(=O)O.CC(=O)O.O.[Ti].[Ti]`, the GI50 in the assay on OVCAR-3 ovarian, with A498 renal, with SK-MEL-28 melanoma, in the assay with IGROV1 ovarian, with UACC-257 melanoma and with MOLT-4 leukemia was greater than 100000 nM in each case. The GI50 is greater than 100000 nM with CCRF-CEM leukemia, 65600 nM with SNB-19 CNS and greater than 100000 nM in the assay on SF-539 CNS. For the same compound, the TGI in the assay with OVCAR-3 ovarian is greater than 100 µM; with A498 renal it was greater than 100000 nM; in the assay with SK-MEL-28 melanoma, greater than 100 µM; with IGROV1 ovarian, greater than 100 µM; in the assay on UACC-257 melanoma, greater than 100 µM; in the assay on MOLT-4 leukemia, greater than 100 µM. For the same compound, the TGI with CCRF-CEM leukemia, in the assay with SNB-19 CNS and in the assay on SF-539 CNS was greater than 100 µM each time.
Take `O=C1c2ccccc2C(=O)C1(Cl)C1(S(=O)(=O)O)c2ccccc2-c2ccccc21`: the TGI is greater than 100 µM in the assay on OVCAR-3 ovarian; greater than 100000 nM in the assay with A498 renal; greater than 100 µM with SK-MEL-28 melanoma; greater than 100 µM with IGROV1 ovarian; greater than 100 µM in the assay with UACC-257 melanoma; greater than 100 µM in the assay with MOLT-4 leukemia. Besides, the TGI is greater than 100 µM with CCRF-CEM leukemia, greater than 100 µM in the assay on SF-539 CNS and greater than 100000 nM in the assay with NCI-H23 lung.
Regarding `CCOC(=O)Oc1c(OC)cc(C(=O)NC2CCc3cc(OC)c(OC)c(OC)c3-c3ccc(SC)c(=O)cc32)cc1OC` (configuration not stated), the GI50 is less than 7 nM in the assay with OVCAR-3 ovarian; 20.6 nM with A498 renal; less than 7 nM in the assay on IGROV1 ovarian; less than 7 nM with UACC-257 melanoma; less than 7 nM in the assay with MOLT-4 leukemia; 23.5 nM with SNB-19 CNS. Moreover, the GI50 with SF-539 CNS and in the assay on NCI-H23 lung was less than 7 nM in each case. In addition, the TGI is 514 nM and 62.2 nM in the assay on A498 renal; greater than 70 µM with SK-MEL-28 melanoma; greater than 70 µM in the assay on IGROV1 ovarian; greater than 70 µM in the assay on UACC-257 melanoma; greater than 70 µM in the assay with MOLT-4 leukemia; 53.6 µM with SNB-19 CNS. Moreover, the TGI with SF-539 CNS was 0.057 µM and 0.00743 µM; in the assay on NCI-H23 lung, 266 nM and 38.8 nM.

The record behind these values is PubChem BioAssay (NCI).
